One series has as its target T1, human rec ACSS2 (Homo sapiens, UniProt Q9NR19).
T1 construct: myc (C); purchased Origene
Put plainly: Biochemical activity ACSS2 assay (AMP-Glo). The conditions noted are these: human recombinant ACSS2, AMP-Glo, 180 min at 37° C. Put shortly: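 C-terminal myc-tagged human recombinant ACSS2 (1 nM) reacted with 100 µM ATP, 100 µM CoA and 500 µM acetate (final) in pH 7.5 Hepes buffer for 180 min at 37° C, compound in 10 concentrations from 30 µM. Released AMP detected by AMP-Glo luminescence. IC50 normalised to inhibitor-free reaction and 5 µM reference inhibitor.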

The next series addresses T2, ACSS2 (Homo sapiens, UniProt Q9NR19).
T2 construct: endogenous fatty acid synthesis activity in the human HCT-15 cancer cell line; endogenous in cells; host or cells: HCT-15
Kind of series: Cellular assay of 14C acetate incorporation into histones (IC50 ACSS2 cellular histone). Type of series: cell-based. The settings on record: HCT-15 cells. Put shortly: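 Human HCT-15 cells preincubated 1 h with compound (0.25% DMSO final), then pulsed 3 h with 14C-acetate. Histones were acid-extracted (0.2 M HCl, overnight, 4° C) after Triton lysis in sodium-butyrate buffer; incorporated 14C counted by liquid scintillation (CPM) to give IC50.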

The next series relates to CHO-K1 cells. Put plainly: Micronucleus assay (MNT) in vitro. The class given is cell-based. The arrangement: key: A: negative, putative negative (micronuclei detected beyond threshold of 60% cyctotoxicity); B: positive. The settings on record: 24 hrs treatment, 0.2 µM to 100 µM. As to the method: The in vitro MNT assay is performed in CHO-K1 cells due to their stable and welI-characterized karyotype, high sensitivity and suitability for a high content imaging approach. They have a basal spontaneous micronucleus frequency of 3-4%.
24 hrs after plating CHO-K1 cells are treated with test compounds for 24 hrs (in duplicates; fixed concentration ranges from 0.2 µM to 100 µM in 2-fold dilution steps). After a medium change cells are incubated for 24 hrs with Cytochalasin B to block cytokinesis and are then fixed and nuclei / micronuclei visualized with a DNA stain. Images are acquired with the Molecular Devices high content imagers IXU or IXM and are analyzed with the dedicated MetaXpress software micronucleus module. Criteria for scoring of micronuclei (MN) are the following: • diameter of the MN should be less than ⅓ of the main nucleus • MN should be separated from or marginally overlap with main nucleus (= no blebs) • MN should have similar staining as the main nucleus At least 1000 binucleated cells are evaluated per treatment replicate. Mitomycin C is used as reference stimulator of micronucleus formation. Cytotoxicity is evaluated in parallel and defined by comparing total nuclei count in compound-treated samples to neutral control samples treated with vehicle only (1% DMSO) (100% cytotoxicity means all cells are dead or lost).
A test compound is regarded as POSITIVE if generation of micronuclei and exhibition of less than 60% cytotoxicity at the same concentration can be observed.
Compounds are scored only in the soluble concentration range. Experimental data of the compounds shown in Table 1 in the MNT assay are shown in Table 2 below and classified in the following groups: […]

Structures are written as SMILES.

T2 sequence (Q9NR19 whole entry): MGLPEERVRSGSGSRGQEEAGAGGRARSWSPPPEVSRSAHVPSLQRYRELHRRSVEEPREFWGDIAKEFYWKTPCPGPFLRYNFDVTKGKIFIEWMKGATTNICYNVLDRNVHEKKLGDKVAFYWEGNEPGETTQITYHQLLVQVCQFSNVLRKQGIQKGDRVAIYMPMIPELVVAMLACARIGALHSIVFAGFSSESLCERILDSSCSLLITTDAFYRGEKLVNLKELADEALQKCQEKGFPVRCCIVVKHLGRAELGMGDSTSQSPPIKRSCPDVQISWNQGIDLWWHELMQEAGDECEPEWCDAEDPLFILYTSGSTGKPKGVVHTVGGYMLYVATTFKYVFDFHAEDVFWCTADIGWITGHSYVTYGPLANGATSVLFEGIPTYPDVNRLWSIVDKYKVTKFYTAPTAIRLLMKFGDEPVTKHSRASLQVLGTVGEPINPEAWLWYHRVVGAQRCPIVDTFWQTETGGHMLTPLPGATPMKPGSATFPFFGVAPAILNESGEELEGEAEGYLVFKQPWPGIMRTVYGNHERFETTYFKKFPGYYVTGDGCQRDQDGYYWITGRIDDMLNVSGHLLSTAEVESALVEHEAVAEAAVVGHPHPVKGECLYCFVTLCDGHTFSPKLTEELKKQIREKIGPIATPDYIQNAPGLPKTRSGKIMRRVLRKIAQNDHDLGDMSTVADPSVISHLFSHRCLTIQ
T1 sequence (Q9NR19 whole entry): as above

For the compound `CCc1c(C(O)(c2ccccc2)c2ccccc2)nc2cc(F)c(C(=O)Nc3cnn(CC)c3)cn12` [Compound 15, 3-Ethyl-7-fluoro-2-(hydroxy-diphenylmethyl)-imidazo[1,2-a]pyridine-6-carboxylic acid (1-ethyl-1H-pyrazol-4-yl)-amide], the half-inhibitory concentration (IC50) on human rec ACSS2 and against ACSS2 was 10 to 100 nM each time. Further, the MNT result in the series with CHO-K1 cells is “A”.

Consider `CCc1c(C(O)(c2ccccc2F)c2ccccc2F)nc2cc(Cl)c(C(=O)Nc3cnn(CC)c3)cn12` [Compound 29, 2-[Bis-(2-fluoro-phenyl)-hydroxy-methyl]-7-chloro-3-ethyl-imidazo[1,2-a]pyridine-6-carboxylic acid (1-ethyl-1H-pyrazol-4-yl)-amide], for which the IC50 on human rec ACSS2 and at ACSS2 was 10 to 100 nM each time. Besides, the MNT entry in the series with CHO-K1 cells is given as “A”.

In the case of `CCc1c(C(O)(c2ccccc2)c2ccccn2)nc2cc(OC)c(C(=O)Nc3ncn(CC)n3)cn12` (single isomer, unassigned) [Compound 18, 3-ethyl-N-(1-ethyl-1,2,4-triazol-3-yl)-2-[hydroxy-phenyl-(2-pyridyl)methyl]-7-methoxy-imidazo[1,2-a]pyridine-6-carboxamide], the IC50 at human rec ACSS2 and at ACSS2 was 100 to 10000 nM throughout. Besides, in the series on CHO-K1 cells, the MNT result is “A”.
